Experimental data as given in patent publication US8697739B2, “Bicyclic acetyl-CoA carboxylase inhibitors and uses thereof” (Novartis AG, priority 2010, dated 2014).

Molecular target: T1, human acetyl-CoA carboxylase 2 (ACC2) (Homo sapiens, UniProt O00763)
T1 construct: The cDNA encoding amino acids 144 to 2458 of human acetyl-CoA carboxylase 2; made in house; host or cells: Sf9 insect cells (baculovirus, pFastBac1)
Test: Acetyl-CoA carboxylase enzyme assay (malonyl-CoA formation by LC/MS/MS)
Assay type: biochemical
Details: recombinant human ACC2 (aa 144-2458); read-out: IC50 ACC2
Summary of the method: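 Malonyl-CoA formation was read by LC/MS/MS MRM against a [13C3]-malonyl-CoA internal standard, after acetic acid quench. The enzyme was baculovirus/Sf9-expressed human ACC2 residues 144–2458, given 15 minutes room-temperature compound preincubation in HEPES pH 7.5 buffer with MgCl2, citrate and DTT. Substrate solution held 50 μM acetyl-CoA, 120 μM ATP and 2 mM KHCO3.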

T1 sequence (O00763 144-2458): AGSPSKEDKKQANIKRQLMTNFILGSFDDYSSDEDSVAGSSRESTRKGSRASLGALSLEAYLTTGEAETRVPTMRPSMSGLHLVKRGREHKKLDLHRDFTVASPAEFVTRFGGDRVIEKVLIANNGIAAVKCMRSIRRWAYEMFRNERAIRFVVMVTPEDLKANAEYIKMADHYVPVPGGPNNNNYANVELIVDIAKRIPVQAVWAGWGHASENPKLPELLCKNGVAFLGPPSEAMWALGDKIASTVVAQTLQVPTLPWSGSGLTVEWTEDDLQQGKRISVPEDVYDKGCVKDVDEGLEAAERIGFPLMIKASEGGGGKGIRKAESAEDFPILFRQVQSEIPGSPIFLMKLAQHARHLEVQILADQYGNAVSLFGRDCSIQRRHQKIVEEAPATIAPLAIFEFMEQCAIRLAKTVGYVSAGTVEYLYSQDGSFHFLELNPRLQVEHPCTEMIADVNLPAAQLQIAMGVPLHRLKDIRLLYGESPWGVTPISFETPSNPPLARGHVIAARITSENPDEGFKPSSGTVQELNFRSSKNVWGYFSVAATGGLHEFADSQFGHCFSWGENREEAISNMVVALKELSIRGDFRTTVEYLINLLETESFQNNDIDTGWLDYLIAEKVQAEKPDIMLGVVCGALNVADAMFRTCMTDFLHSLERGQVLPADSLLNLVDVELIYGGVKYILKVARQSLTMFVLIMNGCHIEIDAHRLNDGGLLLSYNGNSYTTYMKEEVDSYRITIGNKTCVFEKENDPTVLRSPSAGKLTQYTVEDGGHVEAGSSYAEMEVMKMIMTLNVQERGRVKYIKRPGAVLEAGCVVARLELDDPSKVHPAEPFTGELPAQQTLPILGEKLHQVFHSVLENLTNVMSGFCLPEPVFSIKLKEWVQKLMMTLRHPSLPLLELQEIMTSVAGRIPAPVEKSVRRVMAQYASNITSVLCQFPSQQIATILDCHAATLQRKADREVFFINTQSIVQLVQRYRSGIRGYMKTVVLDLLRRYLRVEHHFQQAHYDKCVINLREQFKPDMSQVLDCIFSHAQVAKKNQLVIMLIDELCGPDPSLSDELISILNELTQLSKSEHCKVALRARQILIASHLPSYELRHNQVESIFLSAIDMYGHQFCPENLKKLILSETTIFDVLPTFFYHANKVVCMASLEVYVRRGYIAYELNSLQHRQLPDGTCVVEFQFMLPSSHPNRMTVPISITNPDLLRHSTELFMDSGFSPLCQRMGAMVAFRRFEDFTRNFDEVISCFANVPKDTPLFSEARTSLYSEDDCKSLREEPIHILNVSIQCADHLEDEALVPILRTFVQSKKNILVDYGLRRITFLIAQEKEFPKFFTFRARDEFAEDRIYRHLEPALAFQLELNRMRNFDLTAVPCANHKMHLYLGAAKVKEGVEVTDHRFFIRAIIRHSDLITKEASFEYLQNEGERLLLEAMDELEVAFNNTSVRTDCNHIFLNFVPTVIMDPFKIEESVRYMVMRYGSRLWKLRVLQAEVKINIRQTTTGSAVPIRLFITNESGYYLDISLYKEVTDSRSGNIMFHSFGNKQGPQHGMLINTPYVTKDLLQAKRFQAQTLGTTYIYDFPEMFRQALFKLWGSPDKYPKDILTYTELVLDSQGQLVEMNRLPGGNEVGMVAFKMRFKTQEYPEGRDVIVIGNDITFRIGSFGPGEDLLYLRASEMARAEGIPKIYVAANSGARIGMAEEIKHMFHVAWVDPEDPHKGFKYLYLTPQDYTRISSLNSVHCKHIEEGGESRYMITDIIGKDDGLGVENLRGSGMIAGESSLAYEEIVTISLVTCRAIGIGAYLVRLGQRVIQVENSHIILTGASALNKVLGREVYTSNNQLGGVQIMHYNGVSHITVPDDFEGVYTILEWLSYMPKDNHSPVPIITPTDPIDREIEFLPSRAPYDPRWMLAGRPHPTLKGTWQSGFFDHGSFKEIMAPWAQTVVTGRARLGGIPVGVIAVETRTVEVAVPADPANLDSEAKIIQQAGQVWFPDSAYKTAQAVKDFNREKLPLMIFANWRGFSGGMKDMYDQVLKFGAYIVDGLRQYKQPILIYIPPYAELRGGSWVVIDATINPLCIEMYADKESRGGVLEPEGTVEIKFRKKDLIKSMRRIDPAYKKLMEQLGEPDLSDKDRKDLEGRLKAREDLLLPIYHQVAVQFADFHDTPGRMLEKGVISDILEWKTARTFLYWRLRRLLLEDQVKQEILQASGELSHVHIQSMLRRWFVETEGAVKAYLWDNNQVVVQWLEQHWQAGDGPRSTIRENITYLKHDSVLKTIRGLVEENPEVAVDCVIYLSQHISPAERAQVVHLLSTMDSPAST

| IC50 [µM] | SMILES |
| --- | --- |
| < 0.01 | CC(C)(O)C1CCCN(C(=O)[C@H]2CC[C@H](NS(=O)(=O)c3ccc4c(Cl)c(-c5ccccc5)[nH]c4c3)CC2)C1 (stereo partly drawn) [Example 383, 3-chloro-N-((1r,4r)-4-(3-(2-hydroxypropan-2-yl)piperidine-1-carbonyl)cyclohexyl)-2-phenyl-1H-indole-6-sulfonamide] |
| < 0.01 | Cn1c(-c2ccccc2)cc2ccc(S(=O)(=O)N[C@H]3CC[C@H](C(=O)N4CCC[C@H](C(C)(C)O)C4)CC3)cc21 [Example 404, N-((1S,4r)-4-((S)-3-(2-hydroxypropan-2-yl)piperldine-1-carbonyl)cyclohexyl)-1-methyl-2-phenyl-1H-indole-6-sulfonamide] |
| 0.043 | COCCc1ccc(-c2[nH]c3cc(S(=O)(=O)N[C@H]4CC[C@H](C(=O)N5CCC6(CC5)COC6)CC4)ccc3c2Cl)cc1 [Example 485, N-((1r,4r)-4-(2-oxa-7-azaspiro[3.5]nonane-7-carbonyl)cyclohexyl)-3-chloro-2-(4-(2-methoxyethyl)phenyl)-1H-indole-6-sulfonamide] |
| 0.196 | CCC(C)NC(=O)[C@H]1CC[C@H](NS(=O)(=O)c2ccc3[nH]c(-c4cccnc4)cc3c2)CC1 (stereo partly drawn) [Example 287, (1r,4R)-N-sec-butyl-4-(2-(pyridin-3-yl)-1H-indole-5-sulfonamido)cyclohexanecarboxamide] |
| 1.22 | CC(C)(C)c1nnc([C@H]2CC[C@H](NS(=O)(=O)c3ccc4[nH]c(-c5ccc(Cl)cc5)nc4c3)CC2)o1 [Example 609, N-((1r,4r)-4-(5-tert-butyl-1,3,4-oxadiazol-2-yl)cyclohexyl)-2-(4-chlorophenyl)-1H-benzo[d]imidazole-5-sulfonamide] |
| 0.071 | CC(C)N(C)C(=O)[C@H]1CC[C@H](NS(=O)(=O)c2ccc3[nH]c(Nc4ccccc4)nc3c2)CC1 [Example 7, (1r,4r)-N-isopropyl-N-methyl-4-(2-(phenylamino)-1H-benzo[d]imidazole-5-sulfonamido)cyclohexanecarboxamide] |
| 0.02 | CC(C)(O)[C@H]1CCCN1C(=O)[C@H]1CC[C@H](NS(=O)(=O)c2ccc3cc(-c4ccccc4)[nH]c3c2)CC1 [Example 465, N-((1R,4r)-4-((R)-2-(2-hydroxypropan-2-yl)pyrrolidine-1-carbonyl)cyclohexyl)-2-phenyl-1H-indole-6-sulfonamide] |
| 0.07 | COCCOc1ccc2cc(S(=O)(=O)N[C@H]3CC[C@H](C(=O)N[C@H](C)c4ccc(F)cc4)CC3)ccc2n1 [Example 68, (1r,4R)-N-((R)-1-(4-fluorophenyl)ethyl)-4-(2-(2-methoxyethoxy)quinoline-6-sulfonamido)cyclohexanecarboxamide] |
| 0.47 | C[C@@H](NC(=O)[C@H]1CC[C@H](NS(=O)(=O)c2ccc3nc(OCC(=O)O)ccc3c2)CC1)c1ccc(F)cc1 [Example 78, 2-(6-(N-((1R,4r)-4-((R)-1-(4-fluorophenyl)ethylcarbamoyl)cyclohexyl)sulfamoyl)quinolin-2-yloxy)acetic acid] |
| 0.02 | O=C([C@H]1CC[C@H](NS(=O)(=O)c2ccc3c(c2)oc2ccccc23)CC1)N1CCNC[C@@H]1c1ccccc1 [Example 264, N-((1S,4r)-4-((S)-2-phenylpiperazine-1-carbonyl)cyclohexyl)dibenzo[b,d]furan-3-sulfonamide] |
| 10.4 | C[C@@H]1CCCN1C(=O)[C@H]1CC[C@H](NS(=O)(=O)c2cnc3c(c2)N(C)CCN3C)CC1 [Example 129, 1,4-dimethyl-N-((1R,4r)-4-((R)-2-methylpyrrolidine-1-carbonyl)cyclohexyl)-1,2,3,4-tetrahydropyrido[3,2-b]pyrazine-7-sulfonamide] |
| 0.185 | C[C@@H](NC(=O)[C@H]1CC[C@H](NS(=O)(=O)c2cnc3ccccc3c2)CC1)c1ccccc1F [Example 58, (1r,4R)-N-((R)-1-(2-fluorophenyl)ethyl)-4-(quinoline-3-sulfonamido)cyclohexanecarboxamide] |
